test: Fluorescence quenching of n-AS probes in MLVs of EPC (drug location); assay type: physicochemical; conditions: MLVs of EPC labeled with n-AS probes
Protocol: Three independent experiments were carried out.
This type of fluorescence quenching can be described by the Stern-Volmer linear plots (Equation 5 and Figures 7A,B) where the fluorescence emission intensities of the labeled nanocarrier in the absence (I0) and in the presence (I) of the quencher (drugs) are plotted against the quencher concentration [Q] and it is possible to obtain linear relations in which the intercept is zero and the slope corresponds to Stern-Volmer constant, KSVapp (Lakowicz, [2014]):
The Stern-Volmer plots of the fluorescence quenching provoked by increasing concentrations of Indomethacin are not linear and present positive deviations (Figure 7C). Positive deviations from the Stern-Volmer equation are often observed when the extent of quenching is large and these deviations from linearity indicate that the quenching mechanism cannot be explained solely by a collisional mechanism (Lakowicz, [2014]). There is an apparent static quenching component caused by the close proximity of deactivating drug and fluorophore at excitation moment. The quenching is still collisional, but the existence of fluorophores and quenchers located very close to each other causes an immediate fluorescence deactivation and therefore the fluorophore and the drug appear to form non-fluorescent complexes (Lakowicz, [2014]). This type of fluorescence quenching is usually interpreted in terms of a “sphere of action” (Equation 7) within which the possibility of deactivation is equal to unity (Lakowicz, [2014]).
(7) I0/I=(1+KSVapp[Q])e^[Q]Vapp
By representing graphically I0/(Ie^[Q]Vapp) as a function of [Q], linear relations were obtained in which the slope corresponds to KSVapp (Figure 7D). Thus, Indomethacin quenching efficiency followed approximately the same order as that obtained for Acemetacin: 2-AS < 6-AS < 9-AS < 12-AS.

| SMILES | Drug location within the lipid nanocarrier inferred from Kqapp |
| --- | --- |
| Cc1ccc(C(=O)c2ccc(CC(=O)O)n2C)cc1 [Tolmetin] | preferential location of Tolmetin at the polar headgroup region of the lipid nanocarriers |
| COc1ccc2c(c1)c(CC(=O)OCC(=O)O)c(C)n2C(=O)c1ccc(Cl)cc1 [Acemetacin] | can reach an inner location at the lipid nanocarrier |
| COc1ccc2c(c1)c(CC(=O)O)c(C)n2C(=O)c1ccc(Cl)cc1 [Indomethacin] | able to reach a more inner location within the lipid nanocarrier |

From publication PMC6080416, “Spectroscopic Studies as a Toolbox for Biophysical and Chemical Characterization of Lipid-Based Nanotherapeutics” (Frontiers in Chemistry, 2018)
